Columns and labels:
[1] = test system: LLA (long loop ATP hairpin aptamer) (DNA, aptamer) CACCTGGGGGAGTATTGCGGAGGAAGGTTTTTTTTTTTTTTTTTTTTTTTTTTTTTTTTCCAGGTGTT; experiment: surface plasmon field-enhanced fluorescence titration; settings: 6 mM MgCl2; 10 mM Tris pH 7.4 (HAB); aptamer immobilised on gold; up to 12 mM guanosine
[2] = test system: SLA (short loop ATP hairpin aptamer) (DNA, aptamer, PEG6 spacer between 29 and 30) CACCTGGGGGAGTATTGCGGAGGAAGGTTCCAGGTG; experiment: surface plasmon field-enhanced fluorescence titration, Langmuir isotherm; settings: 6 mM MgCl2, 10 mM Tris pH 7.4 (HAB)
[3] = test system: LLA (long loop ATP hairpin aptamer) (DNA, aptamer) CACCTGGGGGAGTATTGCGGAGGAAGGTTTTTTTTTTTTTTTTTTTTTTTTTTTTTTTTCCAGGTGTT; experiment: as above; settings: 6 mM MgCl2, 10 mM Tris pH 7.4 (HAB)
[4] = aptamer immobilised, fit limited to ATP ≤2 mM, full curve deviates from Langmuir

Structure (SMILES): Nc1nc2c(ncn2[C@@H]2O[C@H](CO)[C@@H](O)[C@H]2O)c(=O)[nH]1
- binding [1]: no

Structure (SMILES): Nc1ncnc2c1ncn2[C@@H]1O[C@H](CO)[C@@H](O)[C@H]1O
- Kd ([2]; aptamer immobilised on gold): 90 µM
- Kd ([3]; aptamer immobilised on gold): 50 µM

Structure (SMILES): Nc1ncnc2c1ncn2[C@@H]1O[C@H](COP(=O)(O)OP(=O)(O)OP(=O)(O)O)[C@@H](O)[C@H]1O
- Kd [2, 4]: 300 µM
- Kd [3, 4]: 120 µM
